This is an account of results in patent US20190313680A1, “MODIFYING OR ENHANCING A FLAVOR OF FOOD AND BEVERAGE PRODUCTS” (Tate & Lyle Ingredients Americas LLC, priority 2016, published 2019).

One experiment relates to panelists. Put plainly: 2-AFC flavor and preference test, cotton candy flavored water (Example 1). The class given is in vivo. Particulars: allulose in an amount below its sweetness threshold in cotton candy flavored beverage. Here is the method:
Cotton candy flavor samples in accordance with Table 2 below were prepared by weighing all of the ingredients into a container and blending until fully mixed.
The N&A Cotton Candy flavor was obtained from Givaudan (product code YX-953-327-3). […] DOLCIA PRIMA® was obtained from Tate & Lyle. The DOLCIA PRIMA® Allulose Syrup comprises allulose in an amount of 71% by weight on a dry solids basis. Accordingly, in the Test Sample, allulose was present at an amount of approximately 1.5% by weight relative to the total weight of the solution. The deionized water was produced by reverse osmosis.
The samples in Table 2 were subjected to 2-AFC testing. As already described herein, an AFC test is an alternative forced choice test. It asks a panelist to identify the sample that is most or least intense in a specified attribute among a given number of samples. A 2-AFC test chooses among 2 samples, a 3-AFC test chooses among 3 samples, etc. The attributes that are specified are generally attributes which panelists are likely to be able to recognize and identify a difference. A 2-AFC for sweetness would present panelists with two samples and ask them of the two which is sweeter. These differ from triangle tests or other types of tests in that an attribute is specified for the panelist to focus on. […]

The test system of experiment [1] is panellists. Put plainly: 2-AFC flavor and preference test, salted caramel flavored water (Example 2). Particulars: allulose in an amount below its sweetness threshold in salted caramel flavored beverage. The class given is in vivo. Here is the method:
Salted caramel flavor samples in accordance with Table 4 below were prepared by weighing all of the ingredients into a container and blending until fully mixed.
The N&A Salted Caramel flavor was obtained from Flavor & Fragrance Specialities (product code YX-226E 032). […] DOLCIA PRIMA® was obtained from Tate & Lyle. The DOLCIA PRIMA® Allulose Syrup comprises allulose in an amount of 71% by weight on a dry solids basis. Accordingly, in the Test Sample, allulose was present at an amount of approximately 1.5% by weight relative to the total weight of the solution. The deionized water was produced by reverse osmosis.
The samples in Table 3 were subjected to 2-AFC testing.
Samples were prepared on the morning of testing. […] Standard ambient fluorescent lighting was used in sensory isolation booths, as is typical in sensory facilities. Products were served blinded and randomized in 2-oz soufflé cups identified with randomized three digit product codes.
The response questionnaires were run using Compusense Cloud. Replicates were not performed for this study. Therefore, simple binomial statistics were applied.

Experiment [2] concerns panellists. Briefly: Determination of the sweet-taste threshold of allulose: two-alternative forced choice test (2-AFC) against 1.5% by weight sucrose solution. The class given is in vivo. An excerpt: Described herein is a method for determining the sweetness threshold of allulose. The method is a two-alternative forced choice test against threshold levels of sweetness (ASTM Designation E2164-08: Standard Test Method for Directional Difference Test). This test is used to determine the amount of allulose at which its sweetness is less than that of the recognition threshold concentration of sucrose. The recognition threshold concentration of sucrose is 1.5% by weight in accordance with FEMA (Flavor Extracts Manufacturing Association) GRAS™ guidance.
The sweet-taste threshold of allulose was determined in accordance with FEMA (Flavor Extracts Manufacturing Association) guidance. The standard process described in this guidance requires use of a two-alternative forced choice test (2-AFC testing) against threshold levels of sweetness. FEMA guidance states that the standard for this determination is a 1.5% by weight sucrose aqueous solution (i.e. the sucrose is present in an amount of 1.5% by weight relative to the total weight of the solution). AFC tests are to be performed up to the concentration where the proposed substance exceeds the sweetness levels of sucrose at threshold levels. FEMA guidance further recommends that 30 observations be made to assess the difference in sweetness and that the differences must be found to be statistically significant to assess the effect.
The number of panellists used across replicates always exceeded the minimum of 30 observations as recommended by the FEMA sensory testing guidance. As replicates were performed, beta-binomial statistics were required to be consistent with published requirements (BI, Jian. 2006. Sensory Discrimination tests and Measurements. Chapter. 6, p. 106-129, 1st ed. Blackwell Publishing, Ames, Iowa). In such tests, when the beta-binomial term A exceeds zero, the beta-binomial is required. However, if A is zero or negative, then the panel is not over-dispersed and traditional binomial statistics can be used.
Samples were prepared on the morning of testing. Reference solutions were made as a point of comparison for all tests. The reference solutions were simple solutions of 1.5% by weight sucrose (commercial Domino brand sugar) in water. Test solutions were made from Tate & Lyle Dolcia Prima® allulose syrup standardized such that the amount of allulose in the test solutions was 1.925%, 2.310%, 2.695%, 2.8875%, or 3.080% by weight relative to the total weight of the solution.
Replicated pairs of samples at a single test concentration were chosen from those above and served on a given day. Panellists were presented products in coded 2-oz soufflé cups containing approximately 1.5 oz of liquid, and asked which sample was sweeter. Products were served at room temperature. The serving order was randomized based on a complete block design, such that the order of samples was randomized among panellists and between replicates.

For experiment [3] the following is noted: in accordance with FEMA GRAS guidance; cited from earlier work.

Molecules are shown by their SMILES. A value given as a limit tells only on which side of the number the result lay.

`O=C(CO)C(O)C(O)C(O)CO` (stereo not shown) [allulose]: the “Effect on cotton candy flavor (in words)” value with panelists was “enhanced the cotton candy flavor”. In addition, the “Effect on preference for the beverage (in words)” value with panelists and with panellists [1] was “increased the preference for the beverage” in each case. In addition, in the experiment with panellists [1], the “Effect on salted caramel flavor (in words)” value was “enhanced the salted caramel flavor”. Moreover, the “Sweetness compared with sucrose solution (in words)” value in the experiment on panellists [2] (2.8875% by weight of allulose vs 1.5% by weight sucrose) is recorded as “considered to be sweeter than the 1.5% by weight sucrose solution”. The “Sweetness relative to sweetness threshold (in words)” value with panellists [2] (3.0800% allulose solids) is “clearly above the sweetness threshold”. Besides, the “Count: number of panellists who selected the sucrose solution as sweeter” value amounted to 45 with panellists [2] (allulose 1.9250 weight % in water vs 1.5% by weight sucrose, 50 possible); 49 with panellists [2] (allulose 2.3100 weight % in water vs 1.5% by weight sucrose, 58 possible); 40 in the experiment on panellists [2] (allulose 2.6950 weight % in water vs 1.5% by weight sucrose, 60 possible). In addition, the “Count: number of panellists who selected the allulose solution as sweeter” value in the experiment with panellists [2] (allulose 2.8875 weight % in water vs 1.5% by weight sucrose, 44 possible) is 26; with panellists [2] (allulose 3.0800 weight % in water vs 1.5% by weight sucrose, 60 possible), 34. Further, the “Amount of allulose in solution considered below its sweetness threshold” value in the experiment on panellists [2] (relative to total weight of the solution, vs 1.5% by weight sucrose) was not above 2.695 % by weight.
For the molecule `OC[C@H]1O[C@@](CO)(O[C@H]2O[C@H](CO)[C@@H](O)[C@H](O)[C@H]2O)[C@@H](O)[C@@H]1O` [sucrose], in experiment [3], the Recognition threshold concentration is 1.5 % by weight.
